From ChEMBL document CHEMBL1201862, “PubChem BioAssay data set” (2004) come the findings set out here.

Some test systems named below: HCT-15; T47D; UACC-257; HT-29; NCI-H226; ACHN; MDA-MB-435; CAKI-1; SNB-19; Hs-578T; OVCAR-8; OVCAR-5; MDA-MB-231; EKVX; UACC-62; SK-MEL-2; NCI-H460; BT-549; TK-10; RPMI-8226.
Common to all, as to assay: NCI anticancer screen, dose series, 48 h

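Each compound was tested at five concentrations against cells in 96-well plates for 48 hours. The concentration for 50% growth inhibition is given as GI50.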 Activity calls are given as the source filed them. Cut-off read from the data, not from the text of the source: active = GI50 up to about 1.1 µM and inactive = higher.

On to `COCOc1cc(OC)c(Br)cc1C/C(=N/O)C(=O)OC`, for which the GI50 with HCT-15 is over 100 µM; with T47D it was 15.8 µM (inactive); in the test on UACC-257, 46.6 µM (inactive); in the test on HT-29, > 100 µM (inactive); in the test with NCI-H226 it was > 100 µM (inactive); with ACHN it was > 100 µM (inactive). Moreover, the GI50 in the test on MDA-MB-435 was 29.6 µM (inactive); in the test with CAKI-1, 48.8 µM (inactive); in the test with SNB-19 it was > 100 µM (inactive); in the test on Hs-578T, 15.9 µM (inactive); in the test with OVCAR-8, > 100 µM (inactive); in the test with OVCAR-5 it was > 100 µM (inactive). Besides, the GI50 was 42.2 µM (inactive) with MDA-MB-231; 49 µM (inactive) in the test with EKVX; 40.6 µM (inactive) in the test with UACC-62; 88.5 µM (inactive) in the test with SK-MEL-2; 71.9 µM (inactive) in the test with NCI-H460; 70.1 µM (inactive) with BT-549. Moreover, the GI50 with TK-10 is 35.1 µM (inactive).

For the compound `Cc1cc(C)c2c(=O)n(CC(O)CN3CCN(CCOCCO)CC3)sc2n1` (centres undefined), the GI50 is 42.1 µM in the test on HCT-15; 19.1 µM (inactive) with T47D; 12.2 µM (inactive) with UACC-257; 19.1 µM (inactive) in the test on HT-29; > 100 µM (inactive) in the test with NCI-H226; 20 µM (inactive) with ACHN. Also, the GI50 was 17.4 µM (inactive) in the test on MDA-MB-435; > 100 µM (inactive) in the test with CAKI-1; 36.5 µM (inactive) in the test with SNB-19; 28.5 µM (inactive) in the test with Hs-578T; 19.9 µM (inactive) in the test with OVCAR-8; 18.9 µM (inactive) in the test on OVCAR-5. Further, the GI50 in the test with MDA-MB-231 was 19.1 µM (inactive); in the test on EKVX it was 18.7 µM (inactive); in the test on UACC-62, 18.7 µM (inactive); with SK-MEL-2 it was 19.7 µM (inactive); in the test with NCI-H460, 20.2 µM (inactive); with BT-549, 16.6 µM (inactive). The GI50 in the test on TK-10 was 17.5 µM (inactive).

As to `Cc1ccc(N/C(=C(/C(Cl)=C(Cl)Cl)[N+](=O)[O-])n2nnc3ccccc32)cc1`, the GI50 with HCT-15 was 24.3 µM; in the test on T47D, 22.5 µM (inactive); in the test on UACC-257, 26 µM (inactive); with HT-29, 22 µM (inactive); in the test with NCI-H226, 18.5 µM (inactive); in the test with ACHN, 21.4 µM (inactive). Also, the GI50 in the test on MDA-MB-435 is 20.1 µM (inactive); in the test on CAKI-1, 17.7 µM (inactive); in the test on RPMI-8226, 20.2 µM (inactive); in the test on SNB-19 it was 18.3 µM (inactive); with Hs-578T, 25.8 µM (inactive); in the test with OVCAR-8 it was 18.8 µM (inactive). For the same compound, the GI50 was 20.1 µM (inactive) in the test on OVCAR-5; 19.1 µM (inactive) with EKVX; 17.7 µM (inactive) with SK-MEL-2; 18 µM (inactive) in the test with NCI-H460; 17.7 µM (inactive) in the test with BT-549.

Take `O=C(CCc1cccc(O)c1)NCCc1cccc(O)c1`: the GI50 in the test with HCT-15 was over 100 µM; with T47D it was > 100 µM (inactive); with UACC-257 it was > 100 µM (inactive); with HT-29, > 100 µM (inactive); in the test with NCI-H226 it was > 100 µM (inactive); in the test with ACHN, > 100 µM (inactive). Further, the GI50 in the test with MDA-MB-435, in the test with CAKI-1, with SNB-19, in the test with Hs-578T, in the test on OVCAR-8 and in the test on OVCAR-5 was > 100 µM (inactive) each time. For the same compound, the GI50 in the test with MDA-MB-231, in the test with EKVX, in the test with UACC-62, in the test on SK-MEL-2, in the test on NCI-H460 and in the test on BT-549 was > 100 µM (inactive) in each case. Moreover, the GI50 in the test with TK-10 was > 100 µM (inactive).
